Assay results published in PubChem BioAssay AID1919016 (Molecular Pharmacology Branch, DTP, NCI, 2023).

Test system: NCI-H196 complex spheroid growth, percent test/control
Assay: Anticancer human tumor NCI-H196 cell line growth inhibition [AhR];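 note: seven days of drug exposure starting three days after plating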;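 for viability, T/C: 100% = DMSO vehicle control wells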
Conditions: for IC50: curve of first compound; for viability, T/C: stronger effect = lower value
Outline: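 Agents were dosed in half-log steps down from roughly clinical Cmax, or from 10 microM where Cmax was unknown, alone and with AhR antagonists. Read-out: percent test/control growth of tumor spheroids containing HUVEC and MSC stromal cells.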

O=C(C=Cn1cnc(-c2cc(C(F)(F)F)cc(C(F)(F)F)c2)n1)NNc1cnccn1 + CC(CO)NC(=O)c1cc(-c2ccc(Cl)cc2)nn(-c2cnn(C)c2)c1=O showed an IC50 (second compound 0.1 µM) of 45.1 nM, an IC50 (second compound 0.316 µM) of 37.4 nM and an IC50 (second compound 1 µM) of 33.3 nM. It also gave an IC50 (second compound 3.16 µM) of 38.4 nM, an IC50 (second compound 10 µM) of 45.8 nM and a viability, T/C (second compound 0.1 µM, first compound 0.00949 µM) of 71.2%. It also gave a viability, T/C (second compound 0.1 µM, first compound 0.03 µM) of 71.1%, a viability, T/C (second compound 0.1 µM, first compound 0.0949 µM) of 11.6% and a viability, T/C (second compound 0.1 µM, first compound 0.3 µM) of 11.1%. For the same compound, the viability, T/C (second compound 0.1 µM, first compound 0.949 µM) was 7.23%, the viability, T/C (second compound 0.1 µM, first compound 3 µM) was 6.89% and the viability, T/C (second compound 0.316 µM, first compound 0.00949 µM) was 74.7%. It also gave a viability, T/C (second compound 0.316 µM, first compound 0.03 µM) of 58.2%, a viability, T/C (second compound 0.316 µM, first compound 0.0949 µM) of 14.9% and a viability, T/C (second compound 0.316 µM, first compound 0.3 µM) of 12.3%. The viability, T/C (second compound 0.316 µM, first compound 0.949 µM) was 8.19%, the viability, T/C (second compound 0.316 µM, first compound 3 µM) was 7.69% and the viability, T/C (second compound 1 µM, first compound 0.00949 µM) was 73.2%. For the same compound, the viability, T/C (second compound 1 µM, first compound 0.03 µM) was 53.6%, the viability, T/C (second compound 1 µM, first compound 0.0949 µM) was 14.3% and the viability, T/C (second compound 1 µM, first compound 0.3 µM) was 7.96%. It also gave a viability, T/C (second compound 1 µM, first compound 0.949 µM) of 8.07%, a viability, T/C (second compound 1 µM, first compound 3 µM) of 6.9% and a viability, T/C (second compound 3.16 µM, first compound 0.00949 µM) of 75.9%. It also gave a viability, T/C (second compound 3.16 µM, first compound 0.03 µM) of 59.1%, a viability, T/C (second compound 3.16 µM, first compound 0.0949 µM) of 16.4% and a viability, T/C (second compound 3.16 µM, first compound 0.3 µM) of 7.92%. The viability, T/C (second compound 3.16 µM, first compound 0.949 µM) was 6.29%, the viability, T/C (second compound 3.16 µM, first compound 3 µM) was 7.99% and the viability, T/C (second compound 10 µM, first compound 0.00949 µM) was 80.6%. It also gave a viability, T/C (second compound 10 µM, first compound 0.03 µM) of 69.1%, a viability, T/C (second compound 10 µM, first compound 0.0949 µM) of 17.2% and a viability, T/C (second compound 10 µM, first compound 0.3 µM) of 11.2%. It also gave a viability, T/C (second compound 10 µM, first compound 0.949 µM) of 10.8% and a viability, T/C (second compound 10 µM, first compound 3 µM) of 7.46%.
In the case of Nc1ccn(C2OC(CO)C(O)C2(F)F)c(=O)n1 (stereo not given) + Cc1ccccc1N=Nc1ccc(NC(=O)c2ccnn2C)c(C)c1, the IC50 (second compound 0.1 µM) is reported as > 10000 nM, the IC50 (second compound 0.316 µM) is reported as > 10000 nM and the IC50 (second compound 1 µM) is reported as > 10000 nM. For the same compound, the IC50 (second compound 3.16 µM) was > 10000 nM, the IC50 (second compound 10 µM) was > 10000 nM and the viability, T/C (second compound 0.1 µM, first compound 0.0316 µM) was 88.8%. The viability, T/C (second compound 0.1 µM, first compound 0.1 µM) was 85.5%, the viability, T/C (second compound 0.1 µM, first compound 0.316 µM) was 53.4% and the viability, T/C (second compound 0.1 µM, first compound 1 µM) was 52.1%. It also gave a viability, T/C (second compound 0.1 µM, first compound 3.16 µM) of 57.6%, a viability, T/C (second compound 0.1 µM, first compound 10 µM) of 59.6% and a viability, T/C (second compound 0.316 µM, first compound 0.0316 µM) of 91.4%. It also gave a viability, T/C (second compound 0.316 µM, first compound 0.1 µM) of 88.2%, a viability, T/C (second compound 0.316 µM, first compound 0.316 µM) of 58.7% and a viability, T/C (second compound 0.316 µM, first compound 1 µM) of 54%. For the same compound, the viability, T/C (second compound 0.316 µM, first compound 3.16 µM) was 54.5%, the viability, T/C (second compound 0.316 µM, first compound 10 µM) was 60.1% and the viability, T/C (second compound 1 µM, first compound 0.0316 µM) was 88.7%. For the same compound, the viability, T/C (second compound 1 µM, first compound 0.1 µM) was 90.4%, the viability, T/C (second compound 1 µM, first compound 0.316 µM) was 62.5% and the viability, T/C (second compound 1 µM, first compound 1 µM) was 53.2%. The viability, T/C (second compound 1 µM, first compound 3.16 µM) was 56.1%, the viability, T/C (second compound 1 µM, first compound 10 µM) was 60.2% and the viability, T/C (second compound 3.16 µM, first compound 0.0316 µM) was 93.3%. It also gave a viability, T/C (second compound 3.16 µM, first compound 0.1 µM) of 91.3%, a viability, T/C (second compound 3.16 µM, first compound 0.316 µM) of 62.7% and a viability, T/C (second compound 3.16 µM, first compound 1 µM) of 57.1%. The viability, T/C (second compound 3.16 µM, first compound 3.16 µM) was 55%, the viability, T/C (second compound 3.16 µM, first compound 10 µM) was 55.9% and the viability, T/C (second compound 10 µM, first compound 0.0316 µM) was 85.2%. The viability, T/C (second compound 10 µM, first compound 0.1 µM) was 90.8%, the viability, T/C (second compound 10 µM, first compound 0.316 µM) was 75.9% and the viability, T/C (second compound 10 µM, first compound 1 µM) was 61.9%. For the same compound, the viability, T/C (second compound 10 µM, first compound 3.16 µM) was 60.1% and the viability, T/C (second compound 10 µM, first compound 10 µM) was 64.3%.
